Entries after “also recorded” stand apart in the source; their conditions may differ.

The target in assay [1] is T1, BZD (peripheral) (Rattus norvegicus, UniProt P16257).
T1 construct: containing 0.2 mg of cardiac membrane protein and the radioactive ligand; tissue CEREP (contract assay); host or cells: rat heart ventricular membranes
The experiment in a line: radio-ligand binding competition, peripheral benzodiazepine receptor ([3H]PK 11195).

The target of assay [2] is T2, Cannabinoid CB2 (Homo sapiens, UniProt P34972).
T2 construct: host or cells: CHO cells
The experiment in a line: radio-ligand binding competition, CB2 ([3H]WIN 55212-2). Particulars: second round, individual EET isomers, 3 μM.

Assay [3] deals with Dopamine D3 (Homo sapiens, UniProt P35462). The experiment in a line: radio-ligand binding competition, D3. Particulars: second round, individual EET isomers, 3 μM.
In assay [4] the target is T3, Neurokinin NK2 (Homo sapiens, UniProt P21452).
T3 sequence (P21452 1-398): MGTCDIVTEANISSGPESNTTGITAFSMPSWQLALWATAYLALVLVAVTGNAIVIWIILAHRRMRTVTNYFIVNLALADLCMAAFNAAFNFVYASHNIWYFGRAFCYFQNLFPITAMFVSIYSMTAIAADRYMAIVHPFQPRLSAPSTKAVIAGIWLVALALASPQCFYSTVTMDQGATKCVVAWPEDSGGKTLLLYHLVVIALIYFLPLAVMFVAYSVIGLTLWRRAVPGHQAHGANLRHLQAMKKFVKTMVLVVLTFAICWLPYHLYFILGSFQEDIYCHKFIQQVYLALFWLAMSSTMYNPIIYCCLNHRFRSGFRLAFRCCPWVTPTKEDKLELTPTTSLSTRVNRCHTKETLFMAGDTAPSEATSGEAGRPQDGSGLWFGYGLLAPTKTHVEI
In words: radio-ligand binding competition, NK2. Particulars: second round, individual EET isomers, 3 μM.

The target in assay [5] is T4, sEH (Homo sapiens, UniProt P34913).
T4 sequence (P34913 1-555): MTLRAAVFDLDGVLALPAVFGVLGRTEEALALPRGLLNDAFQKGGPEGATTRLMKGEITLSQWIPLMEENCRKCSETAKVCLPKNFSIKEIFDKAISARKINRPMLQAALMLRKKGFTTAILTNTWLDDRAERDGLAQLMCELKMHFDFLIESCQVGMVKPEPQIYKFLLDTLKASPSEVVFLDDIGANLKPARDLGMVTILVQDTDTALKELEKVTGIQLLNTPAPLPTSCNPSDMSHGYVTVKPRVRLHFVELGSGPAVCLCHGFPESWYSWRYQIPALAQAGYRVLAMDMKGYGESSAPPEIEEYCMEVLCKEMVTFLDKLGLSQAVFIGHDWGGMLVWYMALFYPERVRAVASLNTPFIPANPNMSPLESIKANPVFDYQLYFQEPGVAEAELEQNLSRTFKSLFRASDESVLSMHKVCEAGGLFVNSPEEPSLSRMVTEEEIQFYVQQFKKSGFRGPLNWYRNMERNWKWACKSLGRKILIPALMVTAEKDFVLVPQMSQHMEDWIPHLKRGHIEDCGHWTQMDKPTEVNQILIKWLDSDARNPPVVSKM
The experiment in a line: sEH inhibition, assay not specified. The class given is biochemical. An excerpt:
Any of a number of standard assays for determining epoxide hydrolase activity can be used to determine inhibition of sEH. For example, suitable assays are described in Gill, et al., Anal Biochem 131:273-282 (1983); and Borhan, et al., Analytical Biochemistry 231:188-200 (1995)). Suitable in vitro assays are described in Zeldin et al., J. Biol. Chem. 268:6402-6407 (1993). Suitable in vivo assays are described in Zeldin et al., Arch Biochem Biophys 330:87-96 (1996). […]
The enzyme also can be detected based on the binding of specific ligands to the catalytic site which either immobilize the enzyme or label it with a probe such as dansyl, fluoracein, luciferase, green fluorescent protein or other reagent. […] The enzyme also can be detected based on the generation of fluorescent products following the hydrolysis of the epoxide. […]

For assay [6], the system named is LPS-elicited thermal hyperalgesia. The experiment in a line: LPS-elicited inflammatory pain model, hindpaw thermal withdrawal latency. It counts as in vivo, rat. The procedure:
Inflammatory pain model: The nociception response was measured using the hind paw withdrawal latency test modified after Hargreaves at al., Pain, 32(1):77-88 (1988). Male Sprague-Dowley rats weighing 240-260 g, are individually housed at UC Davis Animal Resource Facility under standard conditions with free access to food and water, and maintained for at least 1 week before the experiments. On the day of the experiments, the animals' basal response is measured and then compounds are topically administered preceding an injection with 10 ug of endotoxin (1Lipopolysaccharide, “LPS”, Sigma-Aldrich, St. Louis, Mo.). Nociceptive response is then measured at 120 minutes post-LPS injection. Compounds are formulated by dissolving them in ethanol and mixing with cream in a ratio of 1:8. Eight animals per group are used. A dose response curve is obtained by administering increasing concentrations of EETs and measuring nociceptive response.
Behavioral nociceptive testing was conducted by assessing thermal hindpaw withdrawal latencies (“TWL”) using a commercial Hargreaves (Hargreaves et al., A new and sensitive method for measuring thermal nociception in cutaneous hyperalgesia. Pain 32:77-88 (1988)) apparatus (IITC Life Science Inc., Woodland Hills, Calif.). Male Sprague-Dawley rats weighing 240-250 g, were individually housed at the UC Davis Animal Resource Facility under standard conditions with free access to food and water, and maintained for at least 1 week before the experiments. On the day of the experiment, the rats were transferred to a quiet room, acclimated for 1 h, and their baseline responses measured. In pilot experiments, the intensity of the thermal stimulus was set to produce a baseline TWL of 7-8 s. Following baseline measurements, rats were first treated with 200 μl of vehicle or compound-formulated cream by topical application to one hind paw. Compounds (including sEHI, steroid synthesis inhibitors, steroid receptor antagonists, and cannabinoid receptor antagonists, as shown in the Figure legends) were formulated by dissolving them in ethanol and mixing with Vanicream® (Pharmaceutical Specialties, Inc., Rochester, Minn.) in a ratio of 1:9. The cream was thoroughly massaged across the entire hind paw surface over a 2 min period. After 1.5 hours rats were treated with 200 μl of sEHI formulated cream. Within 10 min of sEHI application, lipopolysaccharide (“LPS”, 10 μg in 50 μl 0.9% NaCl) was injected subcutaneously into the plantar surface of the treated paw. Immediately following LPS injection, animals were placed in acrylic chambers on a glass platform maintained at a temperature of 30±1° C. for TWL-measurement. During TWL measurement, a beam of radiant heat was focused onto the mid-portion of the plantar surface of the treated hind paw until the rat moved its stimulated hindpaw abruptly away from the heat stimulus. The duration of heat application necessary to elicit a withdrawal was designated as TWL. A maximum stimulus duration of 22 s was imposed to prevent tissue damage. Five TWL measurements were taken at 3-4 min interstimulus intervals for each of the time points following treatment. The three median TWLs were averaged for each animal at each time point.

Assay [7] in a line: metabolomic analysis of oxylipids and prostaglandins in LPS-treated animals. It counts as in vivo. An excerpt: (In FIG. 3A, the bar presenting the results for the metabolite 6-keto-PGF1a for one group of animals exceeded the scale, as shown by a break in the bar and the statement of the result in ng/mL about the bar). FIG. 3A. […] FIG. 3C. […] All three graphs: bars with lines rising from left to right (e.g., in FIG. 3A, the “sum of DHETs”) present results for untreated (naïve) animals, bars with lines falling from left to right present results for animals treated with LPS, bars with cross-hatching present results for the animals treated with LPS and the sEH inhibitor AEPU, and bars with horizontal lines present the results for animals treated with LPS, AEPU, and the steroid synthesis inhibitor aminogluthetimide (“AGL”). The metabolites chosen for study show the effect on different pathways by which arachidonic acid is metabolized. ΣEpOMEs and ΣDiHOMEs are indicators of the P450 pathway, HETEs are an indicator of how much arachidonic acid is going through the 5-lipoxygenase pathway and 6-keto-PGF1a, and PGE2 are indicators of the arachidonic acid metabolized by the cyclooxygenase pathway. 6-keto-PGF1a and TXB2 are stable metabolites of PGI2 and thromboxane A2 which have been implicated in increased risk for stroke and heart attack. HODEs are lipoxygenase-derived fatty acid metabolites.
See, FIG. 3. This means that inhibition of sEH is not only effective against inflammatory pain but also effective in other types of pain that are not necessarily modulated by prostanoid levels. Indeed, non-inflammatory types of pain are known to be not well addressed by COX inhibitors. The levels of EETs and DHETs, however, correlated well with the nociceptive end result.

In assay [8] the test system is CB2 over CB1. Particulars: cited from earlier work.
For assay [9], the system named is CAR induced local thermal hyperalgesia. In words: carrageenan-induced thermal hyperalgesia model. The class given is in vivo. Particulars: topical, 20 hours post 2% carrageenan. The procedure: Using a second distinct inflammatory model, hyperalgesia was induced by intraplantar injection of 2% carrageenan (CAR) and sEH inhibitors were again delivered topically 20 hours post CAR injection.

Setting [10] is: AGL+AEPU vs AEPU-administered animals.

Chain of Dopamine D3 (P35462 whole entry): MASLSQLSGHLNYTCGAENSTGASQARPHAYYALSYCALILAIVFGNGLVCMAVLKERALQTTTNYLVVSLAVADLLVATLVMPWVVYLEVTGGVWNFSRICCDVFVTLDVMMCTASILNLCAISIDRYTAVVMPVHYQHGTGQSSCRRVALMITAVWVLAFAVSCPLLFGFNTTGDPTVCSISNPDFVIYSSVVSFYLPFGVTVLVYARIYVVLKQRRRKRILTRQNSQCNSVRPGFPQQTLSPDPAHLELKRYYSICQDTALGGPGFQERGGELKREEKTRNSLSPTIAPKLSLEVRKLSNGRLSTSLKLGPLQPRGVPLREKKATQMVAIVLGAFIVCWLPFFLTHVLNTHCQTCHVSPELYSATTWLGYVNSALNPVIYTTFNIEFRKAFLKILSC
T2 sequence (P34972 whole entry): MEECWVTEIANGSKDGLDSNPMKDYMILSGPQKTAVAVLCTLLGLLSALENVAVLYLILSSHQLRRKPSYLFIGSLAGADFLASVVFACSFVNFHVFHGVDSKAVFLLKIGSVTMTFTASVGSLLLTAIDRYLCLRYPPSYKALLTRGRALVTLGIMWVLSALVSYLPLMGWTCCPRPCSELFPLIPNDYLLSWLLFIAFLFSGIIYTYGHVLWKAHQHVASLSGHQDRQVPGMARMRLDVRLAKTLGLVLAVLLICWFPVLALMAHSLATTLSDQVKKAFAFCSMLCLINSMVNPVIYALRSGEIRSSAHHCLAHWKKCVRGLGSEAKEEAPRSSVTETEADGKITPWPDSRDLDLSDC

Take `CCCCCC1OC1C/C=C\C/C=C\C/C=C\CCCC(=O)O` (stereo not drawn) [14,15-EET]: the “inhibition of binding of [3H]PK 11195 (FIG. 1)” value in [1] (increasing concentrations) is “completely inhibit”. For the same compound, the “% Inhibition of Control Specific Binding” value is given as 45% in [1] (second round, individual EET isomers, 3 μM); 5% in assay [2]; 10% in assay [3]; 8% in assay [4].
As for `CCCCCCCCCCCCNC(=O)NC12CC3CC(CC(C3)C1)C2` [ADU, N-Adamantyl-N′-dodecyl urea], the “activity as an inhibitor of sEH” value in [5] is given as “particularly high activity”.
`CCC1(c2ccc(N)cc2)CCC(=O)NC1=O` (stereo not drawn) [AGL]: the “effect on response to LPS administration” value in assay [6] (agent + LPS, no sEHI (FIG. 2D)) is recorded as “do not they modify”. Besides, the “effect on baseline TWL response” value in [6] (agent by itself, no LPS (FIG. 2C)) is on record as “no impact”. The “effect on the antihyperalgesic action of sEHI AEPU” value in [6] (topical, with LPS + AEPU (FIGS. 2A, 2B, 4)) is recorded as “completely blocked; also recorded: clearly hyperalgesic”. Further, in [7] (setting [10]), the “levels of DHETs” value is reported as “increased” and the “levels of EETs” value was “significantly reduced”. The PGE2 levels result in assay [7] (AGL+LPS+AEPU vs AEPU+LPS or LPS only (FIG. 3)) was “significantly lower”.
Regarding `CN1CCCCC1Cn1cc(C(=O)c2cc([N+](=O)[O-])ccc2I)c2ccccc21` (stereo not drawn) [AM1241], in assay [8], the “selectivity for CB2 over CB1” value was 340 fold.
Take `CCCCOC(=O)CCCCCCCCCCCNC(=O)NC12CC3CC(CC(C3)C1)C2` [AUDA-be, 12-(3-Adamantan-1-yl-ureido)dodecanoic acid butyl ester]: in assay [6] (topical administration), the “attenuation of LPS-elicited thermal hyperalgesia” value is recorded as “prophylactic effect”. Moreover, in assay [9], the “effect on CAR induced thermal hyperalgesia” value is on record as “blocked CAR induced local thermal hyperalgesia effectively; also recorded: effective therapeutically in reversing thermal hyperalgesia”.
